In PMC13223435, “Synthesis and Antiproliferative Activity against Melanoma Cells of New Heterocyclic Hybrids Based on Pyridine and Pyrimidine Scaffolds” (Current Medicinal Chemistry, 2025):

Legend:
A375 cells [1] = test: Live-cell imaging (time-lapse microscopy); type: cell-based
Method: For live-cell imaging, A375 cells were seeded into 96-well plates at a density of 2×10^3 cells per well and allowed to grow for 24 h before imaging. Next, the cell culture medium was carefully removed, and new medium containing 16b (at 2 µM and 10 µM) and 29 (at 5 µM and 10 µM) was added and the cell culture plate was placed in the imaging chamber of Agilent BioTek Lionheart FX automated microscope (Agilent Technologies, Inc., Santa Clara, CA, USA) equipped with a Plan Fluorite 20x/0.75 objective (Olympus, Nishi-Shinjuki, Tokyo, Japan), and a FLIR Blackfly BFLY-U3-23S6M camera (Teledyne FLIR, Wilsonville, OR, USA). The temperature in the imaging chamber was set to 37°C and CO2 level to 5%. The bright-field images were acquired every 5 minutes for 48 hours.

melanoma A375 cells = test: WST-1 antiproliferative assay; type: cell-based; conditions: Homo sapiens, A-375; for activity at 10 µM: 48 h of treatment, A375, read-out: Cell proliferation (% control); for IC50: 48 hours of treatment
From the text: (§1) The A375 malignant melanoma cell line (ECACC 88113005, Salisbury, UK) was procured from the European Collection of Authenticated Cell Cultures (ECACC). The primary culture of human dermal fibroblasts (HDF) was derived from skin according to the protocol approved by the Ethical Committee of Pomeranian Medical University in Szczecin (KB-0012/02/18). The detailed protocol of fibroblast isolation, authentication, and cell culture conditions was previously described. Both cell lines were cultivated in a humidified incubator under conditions of 5% CO2 and a temperature of 37°C, using Dulbecco’s modified Eagle’s medium (DMEM) with 4500 mg/L glucose (Sigma-Aldrich Merck Group, St. Louis, MO, USA) enriched with 10% heat-inactivated fetal bovine serum (FBS, EURx, Gdańsk, Poland), 2 mM L-glutamine (Sigma-Aldrich Merck Group, St. Louis, MO, USA), and penicillin-streptomycin solution (Sigma-Aldrich Merck Group, St. Louis, MO, USA). Regular assessments for the presence of mycoplasma were conducted using the MycoAlert® Mycoplasma Detection Kit (Lonza, Rockland, ME, USA).
(§2) The evaluation of the antiproliferative activity of the compounds was performed using the Cell Proliferation Reagent WST-1 assay (Roche, Germany). This assay relies on the reduction of tetrazolium salt to formazan, with the final amount of formazan proportional to the number of viable cells. In our study, A375 cells (2×10^3) and HDF (3×10^3) were initially seeded into 96-well plates and cultured in a humidified atmosphere of 5% CO2 at 37°C. 24 hours later, the culture medium was replaced with a medium containing the tested compounds for a 48-hour incubation period at specified final concentrations. […] For control purposes, cells without the tested compounds, which contained only the vehicle (DMSO), were used. Additionally, a blank sample consisting of tested compounds in a medium (without cells) was included. After the 48-hour incubation period, the WST-1 reagent was introduced and allowed to incubate with the cells for 30 minutes. The absorbance was subsequently measured at 450 nm with background correction at 620 nm using a microplate reader (Infinite 200 Pro, Tecan, Männedorf, Switzerland). Cell viability was calculated according to the following formula: [(Atest–Ablank)/ (Acontrol − Ablank)] × 100%. These measurements were conducted in triplicate for at least three independent experiments.
In the screening step, 10 µM solutions of all 33 compounds were tested on A375 cells. […] Selected compounds (2c, 18e, 16b, 29) were tested at concentrations of 0.1, 1, 10, 50, and 100 µM. The IC50 values were determined using an online calculator (AAT Bioquest, Inc., Quest Graph™ IC50 Calculator (v.1). Retrieved from https://www.aatbio.com/tools/IC50-calculator-v1, accessed on: 2022, December 12).

[2] = WST-1 assay on non-tumor cells (selectivity); type: cell-based, human; conditions: human, primary human dermal fibroblasts (HDF); at 500 µM
From the text: as §1, §2
(§3) For that purpose, non-tumor HDF cells were used and the concentrations of tested compounds were increased to 200 µM (0.4% DMSO) and 500 µM (1% DMSO). Appropriate controls were prepared for higher concentrations of DMSO.

[3] = tested on: human dermal fibroblasts (HDF); test: WST-1 assay on non-tumor cells (selectivity); type: cell-based
From the text: as §1, §2, §3

A375 cells [4] = test: Annexin V-PE/7-AAD apoptosis assay (Muse); type: cell-based; conditions: 48 h, early and late apoptotic
Method: In this study, A375 cells were initially seeded into 24-well plates at a density of 1×10^4 cells per well. After 24 hours, the cell culture medium was carefully removed, and a new medium containing 16b and 29 at varying final concentrations (1, 5, and 10 µM) was added, followed by an additional 48-hour incubation. Cells in a medium containing 0.2% DMSO served as the control group. After the treatment period, cells were washed with phosphate-buffered saline (PBS), and both the cell medium and PBS wash were retained. The cells were then detached using trypsin and centrifuged. The resulting cell pellet was suspended in a fresh medium after discarding the supernatant. An equivalent volume of Muse Annexin V & Dead Cell Reagent (Luminex Corporation, Austin, TX, USA) was added and thoroughly mixed through repeated pipetting. The staining procedure was conducted for 20 minutes at room temperature in the absence of light. The Muse Cell Analyzer (Luminex Corporation, Austin, TX, USA) was utilized for analysis. This assay detects phosphatidylserine (PS) on apoptotic cell surfaces using annexin V-PE (phycoerythrin) binding. A 7-AAD (7-aminoactinomycin D) marker was used to assess cell membrane integrity. The dual staining approach enabled the identification of four distinct cell groups: viable (Annexin V-PE− and 7-AAD−), early apoptotic (Annexin V-PE+ and 7-AAD−), late apoptotic/dead (Annexin V-PE+ and 7-AAD+), and primarily nuclear debris (Annexin V-PE− and 7-AAD+). The findings were based on at least three separate experimental runs.

tubulin = target: T1, tubulin (Sus scrofa, UniProt P02550+P02554); test: Cell free tubulin polymerization assay (fluorescence-based); type: biochemical
T1 construct: purchased Cytoskeleton, Denver, CO, USA
T1 sequence (P02554 whole entry): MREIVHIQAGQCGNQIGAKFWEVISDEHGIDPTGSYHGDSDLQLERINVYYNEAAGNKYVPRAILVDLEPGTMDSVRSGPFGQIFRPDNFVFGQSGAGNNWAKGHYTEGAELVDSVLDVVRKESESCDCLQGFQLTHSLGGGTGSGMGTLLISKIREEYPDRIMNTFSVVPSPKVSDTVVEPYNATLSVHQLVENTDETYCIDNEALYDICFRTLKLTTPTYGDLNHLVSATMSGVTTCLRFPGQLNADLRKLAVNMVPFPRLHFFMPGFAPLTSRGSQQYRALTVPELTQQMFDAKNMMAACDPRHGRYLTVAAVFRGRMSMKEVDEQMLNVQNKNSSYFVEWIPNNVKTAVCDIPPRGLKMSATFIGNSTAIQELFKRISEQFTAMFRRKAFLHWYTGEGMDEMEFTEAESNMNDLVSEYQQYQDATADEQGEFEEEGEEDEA
T1 sequence (P02550 whole entry): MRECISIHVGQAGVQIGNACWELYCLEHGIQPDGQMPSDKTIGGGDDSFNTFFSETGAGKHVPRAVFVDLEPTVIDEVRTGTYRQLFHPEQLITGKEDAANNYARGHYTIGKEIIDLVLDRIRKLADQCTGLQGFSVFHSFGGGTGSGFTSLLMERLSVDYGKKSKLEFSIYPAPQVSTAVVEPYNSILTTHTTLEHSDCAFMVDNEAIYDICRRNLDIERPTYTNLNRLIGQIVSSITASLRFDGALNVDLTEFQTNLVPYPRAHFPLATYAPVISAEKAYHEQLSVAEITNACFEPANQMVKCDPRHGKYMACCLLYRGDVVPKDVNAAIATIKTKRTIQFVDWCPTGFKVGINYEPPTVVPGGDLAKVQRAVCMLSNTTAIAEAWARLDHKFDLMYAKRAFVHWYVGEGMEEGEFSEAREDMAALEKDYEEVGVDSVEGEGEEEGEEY
Method: The tubulin polymerization process was evaluated using a tubulin (>99% pure) and fluorescence-based tubulin polymerization kit (Cytoskeleton, Denver, CO, USA). The effects of compounds 16b and 29 (at final concentrations of 1, 10, 50, 100 µM) on tubulin polymerization were evaluated in cell-free conditions. Paclitaxel (PTX) and vinblastine (VBL) (3 µM) were used as references, and DMSO (0.2%) was used as the vehicle control. This assay tracks the process of tubulin polymerization through an increase in fluorescence resulting from the addition of a fluorescence reporter to microtubules as polymerization occurs. After incubating the tested compounds at 37°C for 1 minute, the icy tubulin reaction mixture (2 mg/mL tubulin, 1.0 mM GTP, 15% glycerol in buffer containing 80 mM PIPES, 2.0 mM MgCl2, 0.5 mM EGTA, pH 6.9, and 10 µM fluorescent reporter) was added to the samples, which were then mixed and monitored using a spectrophotometric microplate reader (Infinite 200 Pro, Tecan) at 1-minute intervals for 90 minutes at 37°C (excitation: 360 nm, emission: 450 nm). The software installed on the plate reader was used to compute the maximum slope (Vmax) of the growth phase, measured in RFU/min, as outlined in the manufacturer's instructions. Each polymerization curve's Vmax was then standardized against the control curve's Vmax. The IC50 values were determined using an online tool (AAT Bioquest, Inc., Quest Graph™ IC50 Calculator ((v.1). Retrieved from https://www.aatbio.com/tools/IC50-calculator-v1, accessed on: 2024, May 6).

SMILES	activity at 10 µM (melanoma A375 cells) [%]	also measured
COc1ccc(/C=C\c2cc(OC)c(OC)c(OC)c2)cc1O [CA-4, combretastatin-4, reference compound]		time-lapse observation of A375 cells (A375 cells [1]; 1 µM, positive control): caused the formation of characteristic protrusions, indicating changes in the organization of the cytoskeleton leading to apoptosis with typical apoptotic bodies
COc1cc(-c2cnc(=S)[nH]c2)cc(OC)c1OC [Compound 1d]	99.2 ± 10.8	
COc1ccc(C2=CNC(=S)N(Cc3ccccc3)C2C#Cc2ccccc2)cc1 (centres unmarked) [Compound 2a]	100 ± 6.85	
COc1ccc(C2=CNC(=S)N(C)C2C#Cc2ccsc2)cc1 (centres unmarked) [Compound 2b]	92.4 ± 2.51	
S=C1NC=C(c2ccccc2)C(C#Cc2ccsc2)N1Cc1ccccc1 (centres unmarked) [Compound 2c]	44.8 ± 6.68	IC50 (melanoma A375 cells): 59.3 ± 9.62 µM
COc1ccc(C2=CNC(=S)N(C)C2C#Cc2ccccn2)cc1 (centres unmarked) [Compound 2d]	93.3 ± 16.6	
COc1cc(C2=CNC(=S)NC2Cc2ccccc2)cc(OC)c1OC (centres unmarked) [Compound 2e]	138 ± 19.5	
COc1cc(C2=CNC(=S)NC2c2cccs2)cc(OC)c1OC (centres unmarked) [Compound 2f]	127 ± 9.99	
COc1ccc(C#Cc2ccsc2)cn1 [Compound 4b]	111 ± 10.8	
O=c1ccc(C#Cc2cccs2)c[nH]1 [Compound 5a]	114 ± 4.12	
O=c1ccc(C#Cc2ccsc2)c[nH]1 [Compound 5b]	113 ± 9.77	
S=C1CC(Cc2ccccc2)C(C#Cc2cccs2)=CN1 (centres unmarked) [Compound 6a]	101 ± 9.41	
S=C1CC(Cc2ccccc2)C(C#Cc2ccsc2)=CN1 (centres unmarked) [Compound 6b]	101 ± 6.05	
O=c1ccc(-n2cc(-c3ccsc3)nn2)c[nH]1 [Compound 9a]	114 ± 14.5	
O=C1CC(Cc2ccccc2)C(n2cc(-c3ccsc3)nn2)=CN1 (centres unmarked) [Compound 10a]	98.8 ± 12.6	
O=C1CC(Cc2ccccc2)C(n2cc(-c3ccccc3)nn2)=CN1 (centres unmarked) [Compound 10b]	96.1 ± 4.11	
O=c1ccc(-c2csc3ccccc23)c[nH]1 [Compound 12a]	106 ± 6.52	

SMILES	activity at 10 µM (melanoma A375 cells) [%]	also measured
O=c1ccc(-c2cccc3sccc23)c[nH]1 [Compound 12b]	97.8 ± 6.41	
S=c1ccc(-c2csc3ccccc23)c[nH]1 [Compound 13a]	100 ± 3.65	
S=c1ccc(-c2cccc3sccc23)c[nH]1 [Compound 13b]	77.5 ± 13.1	
S=c1ccc(-c2cccs2)cn1Cc1ccc2c(c1)OCO2 [Compound 16a]	99.1 ± 3.1	
S=C1CC=C(c2cccs2)C(Cc2ccccc2)N1CC1CC1 (centres unmarked) [Compound 17c]	117 ± 2.07	
S=C1CC=C(c2ccco2)C(Cc2ccccc2)N1CC1CC1 (centres unmarked) [Compound 17d]	98.7 ± 1.41	
S=C1CC(Cc2ccccc2)C(c2ccco2)=CN1 (centres unmarked) [Compound 18e]	51.4 ± 18.5	IC50 (melanoma A375 cells): 10.1 ± 0.75 µM
O=C1CC(Cc2ccccc2)C(C(=O)N2CCOCC2)=CN1 (centres unmarked) [Compound 21]	117 ± 13	
Cn1c(CC2C=CN(c3ccccc3)C(=O)C2)cc2ccccc21 (centres unmarked) [Compound 23a]	67.6 ± 13.3	
Cn1c(CC2C=CN(c3ccccc3)C(=S)C2)cc2ccccc21 (centres unmarked) [Compound 23b]	81.4 ± 14.9	
Cn1c(CC2C=CCC(=O)N2c2ccccc2)cc2ccccc21 (centres unmarked) [Compound 24a]	107 ± 14.2	
O=C1CC(Cc2nc3ccccc3o2)C=CN1c1ccccc1 (centres unmarked) [Compound 25a]	104 ± 1.5	
S=C1CC(Cc2nc3ccccc3o2)C=CN1c1ccccc1 (centres unmarked) [Compound 25b]	88.9 ± 8.81	
CN1C=C(c2ccccc2)[C@@H](c2ccccc2)[C@H](C(=O)c2ccccc2)C1=S [Compound 29]	24.7 ± 4.73	IC50 (melanoma A375 cells): 4.85 ± 1.67 µM; viability at 48 h, 500 µM [2]: 85.9 ± 7.47%; IC50 ([3]; Fibroblast, 48 hours of treatment, normal human dermal fibroblasts): > 500 µM; Selectivity index (SI) ([3]; IC50 normal cells (HDF)/IC50 cancer cell (A375)): > 100; percentage of annexin-positive cells (A375 cells [4]; 5 µM): 8.28 ± 1.80%; percentage of annexin-positive cells (A375 cells [4]; 10 µM): 21.38 ± 1.55%; time-lapse observation of A375 cells (A375 cells [1]; 5 µM, 48 h): more normal cells in the field of view than in the case of the same concentration of 16b; IC50 (tubulin; Vmax normalised to control, read-out: tubulin polymerization inhibition IC50): > 100 µM; effect on tubulin polymerization (tubulin; all tested concentrations (1-100 µM)): not interacting with tubulin
CC(=O)O[C@H]1C(=O)[C@@]2(C)[C@H]([C@H](OC(=O)c3ccccc3)[C@]3(O)C[C@H](OC(=O)[C@H](O)[C@@H](NC(=O)c4ccccc4)c4ccccc4)C(C)=C1C3(C)C)[C@]1(OC(C)=O)CO[C@@H]1C[C@@H]2O [PTX, Paclitaxel, reference compound]		effect on tubulin polymerization (tubulin; 3 µM): reduced the duration of the nucleation phase and increased the Vmax
CC[C@]1(O)C[C@@H]2CN(CCc3c([nH]c4ccccc34)[C@@](C(=O)OC)(c3cc4c(cc3OC)N(C)[C@H]3[C@@](O)(C(=O)OC)[C@H](OC(C)=O)[C@]5(CC)C=CCN6CC[C@]43[C@@H]65)C2)C1 [VBL, vinblastine, reference compound]		effect on tubulin polymerization (tubulin; 3 µM): suppressed tubulin polymerization, resulting in decreased Vmax and reduced final polymer mass of protein
